How the values were obtained:
[1] = test system: mice or rat models; assay: Summary of cargo delivery to targeted organ (Table 1); type: in vivo; settings: cargoes and route (IV, IM, SQ, NB) per peptide as listed in Table 1
Source text: Table 1 lists a summary of cell-penetrating peptides that have been proven successful in delivering various cargo molecules to on or more targeted organ (e.g., by intravenous (IV), intramuscular (IM), or subcutaneous (SQ) administration, or intratraccheal instillation or nebulization (NB)) in mice or rat models.

[2] = test system: mice; assay: In vivo delivery of Luciferase mRNA, intramuscular administration, bioluminescence imaging; settings: IM, Luc mRNA
Protocol: FIGS. 5A-5B show the potency of ADGN-peptide variants for in vivo delivery of Luciferase mRNA via intramuscular administration in mice. ADGN-peptide/luc mRNA particles containing 2.5 μg mRNA were formed in sterile water, and then diluted in 5% sucrose. Mice received […] injection o 25 μl ADGN-peptide/mRNA complexes. mRNA LUC expression was monitored by bioluminescence imaging after 12 h, 24 h and 48h (A). FIG. 5B show bioluminescence imaging at 24 hr in control and treated groups.
Stable ADGN-peptides/mRNA were evaluated for in vivo delivery of Luciferase mRNA via intravenous and intramuscular administrations. Animals were treated with single dose of 5 moU modified Luc mRNA of 5 μg. 5 moU modified Luc mRNA (5 μg) in sterile water (GIBCO) were mixed with ADGN peptide (sterile water), volume for each sample was adjusted to 100 μl, with sterile water containing 5% Sucrose. Samples were mixed gently with vortex for 1 minute at low speed and incubated for 30 min at room temperature. Samples were filtered on 0.45 μm PES filters prior administration. For IV administration Mice received 100 μl intravenous (IV) injection of either ADGN-106/mRNA, ADGN-100/mRNA, ADGN-106RI/mRNA, ADGN-100-stearyl/mRNA, ADGN-100Hydro1/mRNA, ADGN-100Hydro2 or ADGN/mRNA complexes containing 10% of ADGN-100PEG (3 animals per group). As control, mice from group 3 (2 animals per group) received IV injection of 100 μl of naked 5 moU modified Luc mRNA (5 μg). For IM administration, mice received 25 μl (5 μg mRNA) IV injection of either ADGN-100/mRNA, ADGN-106/mRNA, ADGN-106RI/mRNA or ADGN/mRNA complexes containing 10% or 20% of ADGN-100PEG (2 animals per group). As control, mice from group 3 (2 animals per group) received IV injection of 25 μl of naked 5 moU modified Luc mRNA (5 μg).
mRNA Luc expression was monitored by bioluminescence. Bioluminescence imaging was performed after 12, 24, 48 and 72 hrs. Mice received an i.p. injection of 150 μg/g luciferin for noninvasive bioluminescence imaging (IVIS Kinetic; PerkinElmer, Waltham, MA, USA).

Ac-GYVS-Aun(CH2)6-ALWRALWRLWRSLWRLLWKA-NH2 [ADGN-106 hydro-6]
Targeted Organ [1]: Tumor/Pancreas/ and Lung
increase of luciferase expression in the muscle / efficiency relative to ADGN-106 [2]: 4 fold
luciferase expression [2]: mediated Luciferase expression following intramuscular (IM) administration

Source: patent publication US12357695B2, “Peptides and nanoparticles for intracellular delivery of molecules” (AADIGEN, LLC, priority 2019, dated 2025)
